Measurements reported in patent publication US12139492B2 (Endotarget Inc., priority 2021, dated 2024).

Experiments:
Assay type in all cases: cell-based
Mino cells = assay: Antiproliferative effect, MTS cell viability assay, Mino cells; conditions: Homo sapiens, MINO, Mino mantle cell lymphoma cells; read-out: IC50 (anti-proliferation) Mino cells
Outline: (§1)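 MTS read-out, A490 of formazan from metabolically active cells; compound 0–10 μM (0, 0.001, 0.01, 0.1, 1, 10 μM), 72 h exposure.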

JeKo-1 cells = assay: Antiproliferative effect, MTS cell viability assay, JeKo-1 cells; conditions: Homo sapiens; JeKo-1 mantle cell lymphoma cells; read-out: IC50 (anti-proliferation) JeKO-1 cells
Outline: as §1

BTK = BTK (Homo sapiens, UniProt Q06187); assay: BTK degradation, DC50 and Dmax of Table 1 (cell line not given); design: endogenous in cells; conditions: for DC50: concentration giving 50% reduction of BTK expression level
Chain of BTK (Q06187 whole entry): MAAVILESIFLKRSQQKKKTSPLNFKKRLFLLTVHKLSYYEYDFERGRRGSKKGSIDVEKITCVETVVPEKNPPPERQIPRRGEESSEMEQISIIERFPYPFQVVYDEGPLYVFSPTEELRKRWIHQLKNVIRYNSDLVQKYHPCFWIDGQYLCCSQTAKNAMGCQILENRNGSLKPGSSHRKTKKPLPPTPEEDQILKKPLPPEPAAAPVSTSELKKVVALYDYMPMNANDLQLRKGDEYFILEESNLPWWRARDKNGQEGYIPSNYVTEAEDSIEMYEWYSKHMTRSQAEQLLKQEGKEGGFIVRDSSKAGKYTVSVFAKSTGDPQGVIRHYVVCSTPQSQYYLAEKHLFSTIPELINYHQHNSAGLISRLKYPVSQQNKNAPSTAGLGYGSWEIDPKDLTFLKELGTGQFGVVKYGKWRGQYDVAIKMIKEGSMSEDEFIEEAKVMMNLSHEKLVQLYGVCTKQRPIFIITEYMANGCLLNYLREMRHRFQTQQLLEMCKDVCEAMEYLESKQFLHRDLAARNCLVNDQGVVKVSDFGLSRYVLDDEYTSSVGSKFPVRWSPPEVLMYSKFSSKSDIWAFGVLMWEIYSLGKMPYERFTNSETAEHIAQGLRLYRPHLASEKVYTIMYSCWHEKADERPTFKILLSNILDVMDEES

| Compound | IC50 (Mino cells) [nM] | IC50 (JeKo-1 cells) [nM] | Dmax (BTK) [%] | DC50 (BTK) [nM] |
| --- | --- | --- | --- | --- |
| Nc1ncnc2c1c(-c1ccc(Oc3ccccc3)cc1)nn2C1CCN(C(=O)N2CCN(CCC3CCN(c4ccc5c(c4)CN(C4CCC(=O)NC4=O)C5=O)CC3)CC2)CC1 (stereo not shown) [Compound 98, 3-(5-(4-(2-(4-(4-(4-amino-3-(4-phenoxyphenyl)-1H-pyrazolo[3,4-d]pyrimidin-1-yl)piperidine-1-carbonyl)piperazin-1-yl)ethyl)piperidin-1-yl)-1-oxoisoindolin-2-yl)piperidine-2,6-dione] | 1000 to 10000 | 1000 to 10000 | > 90 | 10 to 50 |
| Nc1ncnc2c1c(-c1ccc(Oc3ccccc3)cc1)nn2[C@@H]1CCCN(C(=O)N2CCN(CCCN3CCN(c4ccc5c(c4)C(=O)N(C4CCC(=O)NC4=O)C5=O)CC3)CC2)C1 (stereo partly drawn) [Compound 107, 5-(4-(3-(4-((R)-3-(4-amino-3-(4-phenoxyphenyl)-1H-pyrazolo[3,4-d]pyrimidin-1-yl)piperidine-1-carbonyl)piperazin-1-yl)propyl)piperazin-1-yl)-2-(2,6-dioxopiperidin-3-yl)isoindoline-1,3-dione] | 1000 to 10000 | > 10000 | > 75 | > 50 |
| Nc1ncnc2c1c(-c1ccc(Oc3ccccc3)cc1)nn2C1CCCN(CCOCCOCCC2CCN(c3ccc4c(c3)C(=O)N(C3CCC(=O)NC3=O)C4=O)CC2)C1 (stereo not shown) [Compound 21, 5-(4-(2-(2-(2-(3-(4-amino-3-(4-phenoxyphenyl)-1H-pyrazolo[3,4-d]pyrimidin-1-yl)piperidin-1-yl)ethoxy)ethoxy)ethyl)piperidin-1-yl)-2-(2,6-dioxopiperidin-3-yl)isoindoline-1,3-dione] | 1000 to 10000 | 1000 to 10000 | > 90 | < 10 |
| Nc1ncnc2c1c(-c1ccc(Oc3ccccc3)cc1)nn2C1CCN(C(=O)N2CCC(c3ccc4c(c3)C(=O)N(C3CCC(=O)NC3=O)C4=O)CC2)CC1 (stereo not shown) [Compound 77, 5-(1-(4-(4-amino-3-(4-phenoxyphenyl)-1H-pyrazolo[3,4-d]pyrimidin-1-yl)piperidine-1-carbonyl)piperidin-4-yl)-2-(2,6-dioxopiperidin-3-yl)isoindoline-1,3-dione] | > 10000 | > 10000 | > 50 | > 50 |
| Nc1ncnc2c1c(-c1ccc(Oc3ccccc3)cc1)nn2[C@@H]1CCCN(CC2CCN(CC3CCN(c4ccc5c(c4)C(=O)N(C4CCC(=O)NC4=O)C5=O)CC3)CC2)C1 (stereo partly drawn) [Compound 129, 5-(4-((4-(((R)-3-(4-amino-3-(4-phenoxyphenyl)-1H-pyrazolo[3,4-d]pyrimidin-1-yl)piperidin-1-yl)methyl)piperidin-1-yl)methyl)piperidin-1-yl)-2-(2,6-dioxopiperidin-3-yl)isoindoline-1,3-dione] | > 10000 | > 10000 | > 75 | 10 to 50 |
| Nc1ncnc2c1c(-c1ccc(Oc3ccccc3)cc1)nn2C1CCN(C(=O)N2CCN(CCCC3CCN(c4ccc5c(c4)CN(C4CCC(=O)NC4=O)C5=O)CC3)CC2)CC1 (stereo not shown) [Compound 122, 3-(5-(4-(3-(4-(4-(4-amino-3-(4-phenoxyphenyl)-1H-pyrazolo[3,4-d]pyrimidin-1-yl)piperidine-1-carbonyl)piperazin-1-yl)propyl)piperidin-1-yl)-1-oxoisoindolin-2-yl)piperidine-2,6-dione] | 1000 to 10000 | 1000 to 10000 | > 75 | > 50 |
| Nc1ncnc2c1c(-c1ccc(Oc3ccccc3)cc1)nn2C1CCN(C(=O)N2CCC(CC3CCN(c4ccc5c(c4)CN(C4CCC(=O)NC4=O)C5=O)CC3)CC2)CC1 (stereo not shown) [Compound 90, 3-(5-(4-((1-(4-(4-amino-3-(4-phenoxyphenyl)-1H-pyrazolo[3,4-d]pyrimidin-1-yl)piperidine-1-carbonyl)piperidin-4-yl)methyl)piperidin-1-yl)-1-oxoisoindolin-2-yl)piperidine-2,6-dione] | 1000 to 10000 | 1000 to 10000 | > 90 | < 10 |
